Experimental data taken from ChEMBL document CHEMBL1240466, “New substituted 4-arylaminoquinazolines as potent inhibitors of breast tumor cell lines: in vitro and docking experiments” (Eur J Med Chem, 2010).
Activity calls are given as the source filed them.

Experiments:
Type in all cases: functional, cell-based
[1] = system: HT-29; test: Cytotoxicity against human HT-29 cells by spectrophotometry
[2] = system: NCI-H460; test: Cytotoxicity against human NCI-H460 cells by spectrophotometry
[3] = system: PC-3; test: Cytotoxicity against human PC3 cells by spectrophotometry
[4] = system: NCI/ADR-RES; test: Cytotoxicity against human NCI/ADR-RES cells by spectrophotometry
[5] = system: K562; test: Cytotoxicity against human K562 cells by spectrophotometry
[6] = system: MCF7; test: Cytotoxicity against human MCF7 cells by spectrophotometry
[7] = system: OVCAR-3; test: Cytotoxicity against human OVCAR-3 cells by spectrophotometry
[8] = system: UACC-62; test: Cytotoxicity against human UACC62 cells by spectrophotometry

Measured: Activity

c1ccc(Nc2ncnc3cc4c(cc23)OCO4)cc1
active: [1] | [2] | [3] | [4] | [5] | [6] | [7] | [8]

Cc1cccc(Nc2ncnc3cc4c(cc23)OCO4)c1
active: [1] | [2] | [3] | [4] | [5] | [6] | [7] | [8]
